According to US11492636B2, “Modified bialaphos resistance acetyltransferase compositions and uses thereof” (Whitehead Institute for Biomedical Research, priority 2016, dated 2022):
Values joined by “and” are separate entries in the source; they are usually repeats but may differ in a detail not shown here. Equal values may be shown once.

Biological target: T1, BAR (Streptomyces hygroscopicus, UniProt P16426)
T1 construct: made in house; host or cells: E. coli BL21(DE3)
Test: In vitro enzyme kinetic assays of recombinant BAR against native and non-native substrates
Type: biochemical
Details: for in vitro substrate of BAR (N-acetyltransferase activity): recombinant BAR, up to 8.4 mM substrate; for KM values of BAR against aminoadipate and tryptophan (estimated): substrates reached solubility limit before saturation
Excerpt: The BAR coding sequence was amplified by PCR (KaPa HiFi HotStart polymerase; KaPa Biosystems) from genomic DNA extracted from homozygous plants of the SAIL line SAIL_1165_B02 using primers SAIL_BAR_F_pPROEX and SAIL_BAR_R_pPROEX (see Table 3) and then cloned into pProEX Hta (Invitrogen) via EcoRI and HindIII resulting in a 6×His-BAR fusion construct. 6×His-BAR was expressed in E. coli BL21(DE3) grown in Luria-Bertani medium. At an optical density at 600 nm of 0.6, protein expression was induced with 1.0 mM isopropylthio-β-galactoside (IPTG), and cells were grown at 37° C. for 2.5 h. Cells from a 200 mL culture were harvested by centrifugation and resuspended in 8 mL binding buffer (20 mM HEPES-KOH pH 7.4, 0.5 M NaCl, 10% (v/v) glycerol, 20 mM imidazole) supplemented with 3 U mL^−1 DNase (Promega), 2 mM MgCl2 and 1/10 of a tablet containing a protease inhibitor cocktail (Complete; Roche Applied Science). Cell lysis was performed by use of a high-pressure cell breaker (Cell Disruption System; Constant Systems) at a pressure of 150 MPa. All the following steps were carried out at 4° C. The lysate was centrifuged (16,000 g, 20 min) and a 50% (v/v) slurry of Ni^2+-ion charged agarose beads (Ni Sepharose 6 Fast Flow; GE Healthcare) in binding buffer was added to the supernatant (0.25 mL 50% slurry per mL of supernatant). The mix was incubated for 1 h with slight shaking and then loaded on a Poly-Prep® chromatography column (0.8×4 cm; Bio-Rad). The beads were washed with 10 mL of binding buffer and 3 mL of wash buffer (20 mM HEPES-KOH pH 7.4, 0.5 M NaCl, 10% (v/v) glycerol, 40 mM imidazole) by gravity flow before elution with 3 mL of elution buffer (20 mM HEPES-KOH pH 7.4, 0.5 M NaCl, 10% (v/v) glycerol, 500 mM imidazole). The buffer was exchanged with storage buffer (20 mM HEPES-KOH pH 7.4, 0.5 M NaCl, 10% (v/v) glycerol, 1 mM dithiothreitol) using an ultra-centrifugal filter (MWCO 10,000; Vivaspin 6, Sartorius Stedim Biotech). The purity of the protein preparation was assessed by SDS-PAGE and the concentration was determined by using a NanoDrop 2000 UV-VIS spectrometer (Thermo Scientific).
Enzyme assays were carried out in 10 mM HEPES-KOH (pH 7.4), 20 mM MgCl2, and 2 mM acetyl-CoA (Sigma-Aldrich; final volume 25 μl). Before determining the kinetics of BAR with different substrates, time-dependent activity of the purified protein was tested at substrate concentrations of 200 μM L-phosphinothricin (glufosinate ammonium, considered as a 1:1 mixture of L- and D-enantiomers; Sigma-Aldrich) or 400 μM (L-aminoadipate and L-tryptophan; Sigma-Aldrich). Reactions were initiated by the addition of purified BAR at 0.03 μM (assays with L-phosphinothricin) or 20 μM (assays with aminoadipate or tryptophan) and incubated at 25° C. for the indicated times (FIGS. 8A-8D). Reactions were stopped by the addition of three volumes of methanol supplemented with 0.5% (v/v) formic acid. Likewise, substrate concentration-dependence was determined by incubating assays for 7.5 min (assays with L-phosphinothricin) or 2 h (assays with aminoadipate or tryptophan; FIG. 3). Control assays (FIG. 3B) were performed with aminoadipate and tryptophan at 8.4 mM, but in the absence of BAR. In addition, D-tryptophan (Sigma-Aldrich) was tested as potential substrate at 8.4 mM (FIG. 3B).
In vitro assays with aminoadipate and tryptophan as substrate were analyzed by LC-MS as described above. In vitro assays with L-phosphinothricin were analyzed by LC-MS as described above, but using a normal-phase chromatography system as follows: an 150 mm amide column (ACQUITY UPLC™ BEH amide, 1.7 μm, 2.1×150 mm, Waters) was developed using LC-MS solvents (Chemie Brunschwig) with a gradient (flow rate of 0.4 mL min^−1) of solvent B (acetonitrile with 0.1% (v/v) formic acid) in solvent A (water with 0.1% (v/v) formic acid) as follows (all (v/v)): 95% for 0.5 min, 95% to 30% in 12 min, 30% for 2 min, 30% to 95% in 1 min and 95% for 5 min. […]

T1 sequence (P16426 whole entry): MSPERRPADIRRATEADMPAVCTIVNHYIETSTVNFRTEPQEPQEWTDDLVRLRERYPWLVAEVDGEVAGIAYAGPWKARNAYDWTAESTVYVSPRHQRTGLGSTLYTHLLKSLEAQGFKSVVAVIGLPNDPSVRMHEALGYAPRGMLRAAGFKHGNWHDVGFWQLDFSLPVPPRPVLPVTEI

SMILES | catalytic activity of BAR toward aminoadipate compared with tryptophan (in vitro) | in vitro substrate of BAR (N-acetyltransferase activity) | KM values of BAR against aminoadipate and tryptophan (estimated) | Km (N-acetylation by recombinant BAR, Michaelis-Menten kinetics, read-out: apparent KM)
NC(CCCC(=O)O)C(=O)O [aminoadipate, L-aminoadipate] | relatively higher catalytic activity | in vitro substrates of BAR | at least in the millimolar range | 
CP(=O)(O)CC[C@H](N)C(=O)O [phosphinothricin, reference compound] |  |  |  | ~39 µM and 39 µM
N[C@@H](Cc1c[nH]c2ccccc12)C(=O)O [tryptophan, L-tryptophan] |  | in vitro substrates of BAR | at least in the millimolar range | 
